From patent US11084800B2 (Achillion Pharmaceuticals, Inc., priority 2017, dated 2021)

Each molecule was assayed against Human Factor D (Homo sapiens (Human), UniProt P00746) (assay: Human Factor D Assay). Details: Factor D inhibition, assay of Example 10; read-out: IC5 (Stars).
Sequence of Human Factor D (P00746 26-253): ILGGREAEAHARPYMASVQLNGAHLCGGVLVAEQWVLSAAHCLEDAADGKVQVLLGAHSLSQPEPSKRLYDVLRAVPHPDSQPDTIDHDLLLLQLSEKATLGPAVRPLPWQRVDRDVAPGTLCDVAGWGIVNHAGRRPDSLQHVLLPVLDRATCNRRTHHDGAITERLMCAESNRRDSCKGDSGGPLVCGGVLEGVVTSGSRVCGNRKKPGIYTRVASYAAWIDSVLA
Type: biochemical
Method in brief: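 Thioester substrate Z-L-Lys-SBz (100 μM) with Ellman's reagent DTNB (100 μM) reports activity of 80 nM human serum-derived enzyme, kinetically at 405 nm over 30 min. Compound preincubated 5 min, room temperature, pH 7.5 Tris/1 M NaCl; IC50 by nonlinear fit of rates.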
With CC(=O)c1nn(CC(=O)N2[C@H](C(=O)Nc3nc(Br)c(F)cc3C)C[C@@]3(Cc4nc(C)no4)C[C@@H]23)c2c(C)cc(-c3cnc(C)nc3)cc12 [Compound 424, (1R,3S,5R)-2-(2-(3-acetyl-7-methyl-5-(2-methylpyrimidin-5-yl)-1H-indazol-1-yl)acetyl)-N-(6-bromo-5-fluoro-3-methylpyridin-2-yl)-5-((3-methyl-1,2,4-oxadiazol-5-yl)methyl)-2-azabicyclo[3.1.0]hexane-3-carboxamide] the IC50 was under 1000 nM. CC(=O)c1nn(CC(=O)N2[C@H](C(=O)Nc3nc(C(F)(F)F)ccc3C)C[C@@]3(Cc4nc(C)no4)C[C@@H]23)c2c(C)cc(-c3cnc(C)nc3)cc12 [Compound 425, (1R,3S,5R)-2-(2-(3-acetyl-7-methyl-5-(2-methylpyrimidin-5-yl)-1H-indazol-1-yl)acetyl)-5-((3-methyl-1,2,4-oxadiazol-5-yl)methyl)-N-(3-methyl-6-(trifluoromethyl)pyridin-2-yl)-2-azabicyclo[3.1.0]hexane-3-carboxamide] gave an IC50 of under 1000 nM. CC(=O)c1cn(CC(=O)N2[C@H](C(=O)Nc3nc(Br)ccc3C)C[C@@]3(C)C[C@@H]23)c2c(C)cc(-c3cnc(C)nc3)cc12 [Compound 426, (1R,3S,5R)-2-(2-(3-acetyl-7-methyl-5-(2-methylpyrimidin-5-yl)-1H-indol-1-yl)acetyl)-N-(6-bromo-3-methylpyridin-2-yl)-5-methyl-2-azabicyclo[3.1.0]hexane-3-carboxamide] gave an IC50 of under 1000 nM. Molecule CC(=O)c1nn(CC(=O)N2[C@H](C(=O)NCc3cccc(Cl)c3F)C[C@@]3(Cc4nc(C)no4)C[C@@H]23)c2c(C)cc(-c3cnc(C)nc3)cc12 [Compound 427, (1R,3S,5R)-2-(2-(3-acetyl-7-methyl-5-(2-methylpyrimidin-5-yl)-1H-indazol-1-yl)acetyl)-N-(3-chloro-2-fluorobenzyl)-5-((3-methyl-1,2,4-oxadiazol-5-yl)methyl)-2-azabicyclo[3.1.0]hexane-3-carboxamide] has an IC50 of under 1000 nM. In the case of CC(=O)c1nn(CC(=O)N2[C@H](C(=O)Nc3nc(Br)ccc3Cl)C[C@@]3(Cc4nc(C)no4)C[C@@H]23)c2c(C)cc(-c3cnc(C)nc3)cc12 [Compound 428, (1R,3S,5R)-2-(2-(3-acetyl-7-methyl-5-(2-methylpyrimidin-5-yl)-1H-indazol-1-yl)acetyl)-N-(6-bromo-3-chloropyridin-2-yl)-5-((3-methyl-1,2,4-oxadiazol-5-yl)methyl)-2-azabicyclo[3.1.0]hexane-3-carboxamide], the IC50 is reported as under 1000 nM. In the case of CC(=O)c1nn(CC(=O)N2[C@H](C(=O)Nc3nc(Br)ccc3C)C[C@@]3(Cc4nnc(C)o4)C[C@@H]23)c2c(CF)cc(-c3cnc(C)nc3)cc12 [Compound 429, (1R,3S,5R)-2-(2-(3-acetyl-7-(fluoromethyl)-5-(2-methylpyrimidin-5-yl)-1H-indazol-1-yl)acetyl)-N-(6-bromo-3-methylpyridin-2-yl)-5-((5-methyl-1,3,4-oxadiazol-2-yl)methyl)-2-azabicyclo[3.1.0]hexane-3-carboxamide], the IC50 is reported as under 1000 nM. CC(=O)c1nn(CC(=O)N2C[C@](C)(F)C[C@H]2C(=O)Nc2nc(Br)ccc2C)c2ccc(-c3cnc(C)nc3)cc12 [Compound 430, (2S,4R)-1-{2-[3-Acetyl-5-(2-methylpyrimidin-5-yl)indazol-1-yl]acetyl}-N-(6-bromo-3-methylpyridin-2-yl)-4-fluoro-4-methylpyrrolidine-2-carboxamide] showed an IC50 of under 1000 nM. Work on Cc1ncc(-c2cc3c(C(N)=O)nn(CC(=O)N4[C@H](C(=O)Nc5nc(Br)c(F)cc5C)C[C@@]5(C)C[C@@H]45)c3c(C)n2)cn1 [Compound 431, 1-(2-((1R,3S,5R)-3-((6-bromo-5-fluoro-3-methylpyridin-2-yl)carbamoyl)-5-methyl-2-azabicyclo[3.1.0]hexan-2-yl)-2-oxoethyl)-7-methyl-5-(2-methylpyrimidin-5-yl)-1H-pyrazolo[3,4-c]pyridine-3-carboxamide] yielded an IC50 of under 1000 nM. Molecule CC(=O)c1nn(CC(=O)N2C[C@](C)(F)C[C@H]2C(=O)Nc2nc(Br)ccc2C)c2c(C)nc(-c3cnc(C)nc3)cc12 [Compound 432, (2S,4R)-1-(2-(3-acetyl-7-methyl-5-(2-methylpyrimidin-5-yl)-1H-pyrazolo[3,4-c]pyridin-1-yl)acetyl)-N-(6-bromo-3-methylpyridin-2-yl)-4-fluoro-4-methylpyrrolidine-2-carboxamide] has an IC50 of under 1000 nM. Work on CC(=O)c1nn(CC(=O)N2C[C@](C)(F)C[C@H]2C(=O)Nc2nc(Br)ccc2C)c2c(C)cc(-c3cnc(C)nc3)cc12 [Compound 433, (2S,4R)-1-(2-(3-acetyl-7-methyl-5-(2-methylpyrimidin-5-yl)-1H-indazol-1-yl)acetyl)-N-(6-bromo-3-methylpyridin-2-yl)-4-fluoro-4-methylpyrrolidine-2-carboxamide] yielded an IC50 of under 1000 nM. With CC(=O)c1nn(CC(=O)N2[C@H](C(=O)NCc3cccc(Cl)c3F)C[C@@]3(Cc4nnc(C)o4)C[C@@H]23)c2c(C)cc(-c3cnc(C)nc3)cc12 [Compound 434, (1R,3S,5R)-2-(2-(3-acetyl-7-methyl-5-(2-methylpyrimidin-5-yl)-1H-indazol-1-yl)acetyl)-N-(3-chloro-2-fluorobenzyl)-5-((5-methyl-1,3,4-oxadiazol-2-yl)methyl)-2-azabicyclo[3.1.0]hexane-3-carboxamide] the IC50 was under 1000 nM. For CC(=O)c1nn(CC(=O)N2[C@H](C(=O)Nc3nc(C(F)(F)F)ccc3C)C[C@@]3(Cc4nnc(C)o4)C[C@@H]23)c2c(C)cc(-c3cnc(C)nc3)cc12 [Compound 435, (1R,3S,5R)-2-(2-(3-acetyl-7-methyl-5-(2-methylpyrimidin-5-yl)-1H-indazol-1-yl)acetyl)-5-((5-methyl-1,3,4-oxadiazol-2-yl)methyl)-N-(3-methyl-6-(trifluoromethyl)pyridin-2-yl)-2-azabicyclo[3.1.0]hexane-3-carboxamide], the IC50 was under 1000 nM. Cc1ncc(-c2cc3c(C(N)=O)nn(CC(=O)N4C[C@H]5C[C@H]5[C@H]4C(=O)Nc4nc(Br)ccc4C)c3c(C)n2)cn1 [Compound 436, 1-(2-((1R,25,5S)-2-((6-bromo-3-methylpyridin-2-yl)carbamoyl)-3-azabicyclo[3.1.0]hexan-3-yl)-2-oxoethyl)-7-methyl-5-(2-methylpyrimidin-5-yl)-1H-pyrazolo[3,4-c]pyridine-3-carboxamide] was tested, and the IC50 was under 1000 nM. In the case of CSCc1cc(F)c(Br)nc1NC(=O)[C@@H]1C[C@@]2(C)C[C@H]2N1C(=O)Cn1nc(C(C)=O)c2cc(-c3cnc(C)nc3)ccc21 [Compound 438, (1R,5R)-2-(2-(3-Acetyl-5-(2-methylpyrimidin-5-yl)-1H-indazol-1-yl)acetyl)-N-(6-bromo-5-fluoro-3-((methylthio)methyl)pyridin-2-yl)-5-methyl-2-azabicyclo[3.1.0]hexane-3-carboxamide], the IC50 is reported as under 1000 nM. CC(=O)c1nn(CC(=O)N2C[C@H](F)C[C@H]2C(=O)Nc2cccc(I)n2)c2ccc(-c3cnc(C)nc3)cc12 [Compound 439, (2S,4R)-1-(2-(3-acetyl-5-(2-methylpyrimidin-5-yl)-1H-indazol-1-yl)acetyl)-4-fluoro-N-(6-iodopyridin-2-yl)pyrrolidine-2-carboxamide] showed an IC50 of under 1000 nM. In the case of CC(=O)c1nn(CC(=O)N2C[C@H](F)C[C@H]2C(=O)Nc2ccccn2)c2ccc(-c3cnc(C)nc3)cc12 [Compound 440, (2S,4R)-1-(2-(3-acetyl-5-(2-methylpyrimidin-5-yl)-1H-indazol-1-yl)acetyl)-4-fluoro-N-(pyridin-2-yl)pyrrolidine-2-carboxamide], the IC50 is reported as under 1000 nM. CC(=O)c1nn(CC(=O)N2[C@H](C(=O)Nc3nc(Br)ccc3C)C[C@@]3(CNc4ccn(CC(F)(F)F)n4)C[C@@H]23)c2c(C)cc(-c3cnc(C)nc3)cc12 [Compound 441, (1R,3S,5R)-2-(2-(3-acetyl-7-methyl-5-(2-methylpyrimidin-5-yl)-1H-indazol-1-yl)acetyl)-N-(6-bromo-3-methylpyridin-2-yl)-5-(((1-(2,2,2-trifluoroethyl)-1H-pyrazol-3-yl)amino)methyl)-2-azabicyclo[3.1.0]hexane-3-carboxamide] showed an IC50 of under 1000 nM. Cc1ncc(-c2ccc3c(cnn3CC(=O)N3C[C@H](F)C[C@H]3C(=O)Nc3cccc(Br)n3)c2)cn1 [Compound 444, (2S,4R)-N-(6-bromopyridin-2-yl)-4-fluoro-1-(2-(5-(2-methylpyrimidin-5-yl)-1H-indazol-1-yl)acetyl)pyrrolidine-2-carboxamide] showed an IC50 of 1000 to 10000 nM.

Same assay, conditions: Table 8; Factor D 80 nM, substrate Z-L-Lys-SBz; read-out: IC50
For CC(=O)c1nn(CC(=O)N2[C@H](C(=O)Nc3nc(Br)ccc3C)C[C@@]3(CNC(=O)COCCOCCNC(=O)COCCOCCNC(=O)CC[C@H](NC(=O)CCCCCCCCCCCCCCCCC(=O)O)C(=O)O)C[C@@H]23)c2cnc(-c3cnc(C)nc3)cc12 [Compound 442, (S)-1-((1R,3S,5R)-2-(2-(3-acetyl-5-(2-methylpyrimidin-5-yl)-1H-pyrazolo[3,4-c]pyridin-1-yl)acetyl)-3-((6-bromo-3-methylpyridin-2-yl)carbamoyl)-2-azabicyclo[3.1.0]hexan-5-yl)-24-carboxy-3,12,21,26-tetraoxo-5,8,14,17-tetraoxa-2,11,20,25-tetraazatritetracontan-43-oic acid], the IC50 was under 1000 nM. CCCCCCCCCCCCCCCC(=O)NCCCC[C@H](NC(=O)[C@H](CCC(=O)O)NC(=O)[C@H](Cc1ccc(O)cc1)NC(=O)[C@H](CCC(=O)O)NC(C)=O)C(=O)N[C@@H](CCC(=O)O)C(=O)N[C@@H](Cc1ccc(O)cc1)C(=O)N[C@@H](CCC(=O)O)C(=O)NC[C@@]12C[C@@H](C(=O)Nc3nc(Br)ccc3C)N(C(=O)Cn3nc(C(C)=O)c4cc(-c5cnc(C)nc5)cc(C)c43)[C@@H]1C2 [Compound 443, (4S,7S,10S,13S,16S,19S,22S)-22-acetamido-4-((((1R,3S,5R)-2-(2-(3-acetyl-7-methyl-5-(2-methylpyrimidin-5-yl)-1H-indazol-1-yl)acetyl)-3-((6-bromo-3-methylpyridin-2-yl)carbamoyl)-2-azabicyclo[3.1.0]hexan-5-yl)methyl)carbamoyl)-10,16-bis(2-carboxyethyl)-7,19-bis(4-hydroxybenzyl)-6,9,12,15,18,21-hexaoxo-13-(4-palmitamidobutyl)-5,8,11,14,17,20-hexaazapentacosanedioic acid] showed an IC50 of 1000 to 10000 nM.
